Assay results taken from US6087401A, “Cyclopentenones, process for preparing the same, and the use thereof” (Takara Shuzo Co., Ltd., priority 1996, dated 2000).

Tests used:
Details in all cases: method of the corresponding examples
[1] = antibacterial activity of optically active cyclopentenones; format: cell-based
HL-60 cells [2] = test: cancer cell differentiation (Wright-Giemsa stain); format: cell-based, human
Protocol: (2) To HL-60 cells was added 10^-4 μg/ml of the cyclopentenone and an incubation by the same manner as in Example 15-(1) was conducted for three days. […] The result was that the differentiated cells were around 10% in the control where no cyclopentenone was added while, in the fractions to which the cyclopentenone was added, 50% or more cells were differentiated to monocyte- or to macrophage-like cells.
The result was that the differentiated cells were around 10% in the control where no cyclopentenone was added while, in the fraction to which 0.005 μg/ml of the cyclopentenone was added, 25% or more cells were differentiated to mature bone marrow cells.

HL-60 cells [3] = test: apoptosis-inducing activity to HL-60 cells; format: cell-based, human
Protocol: (2) The cyclopentenone prepared in Example 2-(1) was used for preparing aqueous solutions of the cyclopentenone in the concentrations of 2.86 mM, 955 μM, 318 μM, 106 μM, 35 μM, 12 μM and […]. Then said heat-treated substance was adjusted to pH 7.0 with NaOH and the apoptosis-inducing activity to HL-60 cells was measured as follows.
To 1.35 ml of this suspension was added 0.15 ml of the above-mentioned cyclopentenone solution and the mixture was incubated at […] for 20 hours in the presence of 5% of carbon dioxide gas.

[4] = test system: human promyelocytic leukemia cells HL-60; test: MTT cell growth inhibition, optically active cyclopentenones; format: cell-based
Protocol: An ethanolic solution (1 mg/ml) of each of the (-)- and (+) -cyclopentenoneobtained in Example 16 was diluted with a 75% aqueous ethanol solution to an extent of 2, 4, 8, 16, 32, 64, 128, 256, 512, 1024 and 2048-fold and each 5 μl of them was charged in each of the wells of a 96-well microtiter plate followed by drying with air. An RPMI 1640 medium (100 μl) containing 10% fetal bovine serum containing 5000 human promyelocytic leukemia cells HL-60 (ATCC CCL-240) was added to each well and incubated at 37° C. for 48 hours in the presence of 5% of carbon dioxide gas. After observing the morphology of the cells under an optical microscope, 10 μl of phosphate buffered saline containing 5 mg/ml of 3-(4,5-dimethylthiazol-2-yl)-2,5-diphenyltetrazolium bromide (MTT; manufactured by Sigma) thereto, an incubation was conducted for additional four hours and the growth state of the cells was observed under a microscope. Further, 100 μl of 2-propanol containing 0.04N HCl was added thereto followed by well stirring and an absorbance at 590 nm was measured and defined as the degree of cell growth.

With `O=C1C=C[C@@H](O)[C@@H]1O` (single isomer, unassigned) [(+)-trans-cyclopentenone, (+)-trans-4,5-dihydroxy-2-cyclopenten-1-one] as the compound, how does the antibacterial activity [1] read?
The antibacterial activity was “antibacterial activity”.

What about the “cancer cell differentiation inducing activity” value (HL-60 cells [2]) of the same compound?
The value was “cancer cell differentiation inducing activity”.

What about the apoptosis inducing activity (HL-60 cells [3]) of the same compound?
Its apoptosis inducing activity is “apoptosis inducing activity”.

And the cell growth inhibition [4]?
Its cell growth inhibition is “cell growth inhibiting activity”.

Which antibacterial activity [1] does the source give for `O=C1C=C[C@@H](O)[C@@H]1O` (single isomer, unassigned) [(-)-trans-cyclopentenone, (-)-trans-4,5-dihydroxy-2-cyclopenten-1-one] here?
The antibacterial activity was “antibacterial activity”.

And the “cancer cell differentiation inducing activity” value (HL-60 cells [2])?
Its value is “cancer cell differentiation inducing activity”.

And the apoptosis inducing activity (HL-60 cells [3])?
Its apoptosis inducing activity is “apoptosis inducing activity”.

What about the cell growth inhibition [4] of the same compound?
The cell growth inhibition was “cell growth inhibiting activity”.

For `O=C1C=CC(O)C1O` (single isomer, unassigned; (+)) [(+)-cis-cyclopentenone], which antibacterial activity [1] is on record?
Its antibacterial activity is “antibacterial activity”.

And the “cancer cell differentiation inducing activity” value (HL-60 cells [2])?
Its value is “cancer cell differentiation inducing activity”.

And the apoptosis inducing activity (HL-60 cells [3])?
The apoptosis inducing activity was “apoptosis inducing activity”.

What about the cell growth inhibition [4] of the same compound?
Its cell growth inhibition is “cell growth inhibiting activity”.

With `O=C1C=CC(O)C1O` (single isomer, unassigned; (-)) [(-)-cis-cyclopentenone] as the compound, how does the antibacterial activity [1] read?
The antibacterial activity was “antibacterial activity”.

What about the “cancer cell differentiation inducing activity” value (HL-60 cells [2]) of the same compound?
Its value is “cancer cell differentiation inducing activity”.

What about the apoptosis inducing activity (HL-60 cells [3]) of the same compound?
The apoptosis inducing activity was “apoptosis inducing activity”.

And the cell growth inhibition [4]?
The cell growth inhibition was “cell growth inhibiting activity”.
